Literature values in patent US11951100B2, “Formulations of RBP4 inhibitors and methods of use” (Belite Bio, LLC, priority 2019, dated 2024).

Settings: sub-population with significant RBP4 lowering; cited from earlier work

CC1=C(/C=C/C(C)=C/C=C/C(C)=C/C(=O)Nc2ccc(O)cc2)C(C)(C)CCC1 [fenretinide]
lesion growth: slower lesion growth
